Results taken from patent US9107879B1, “Methods of increasing the cytotoxicity of chemotherapeutic agents with multisubstrate inhibitors of histone, protein-lys, polyamine acetylation, and polyamine metabolism” (Vanderbilt University, priority 2010, dated 2015).

Legend:
[1] = target: T1, recombinant p300 (1284-1660) (Homo sapiens, UniProt Q09472); test: p300 HAT solution assay, H4 peptide substrate, DTNB detection; format: biochemical
T1 construct: p300 protein (residues 1284-1660); made in house
T1 sequence (Q09472 1284-1660): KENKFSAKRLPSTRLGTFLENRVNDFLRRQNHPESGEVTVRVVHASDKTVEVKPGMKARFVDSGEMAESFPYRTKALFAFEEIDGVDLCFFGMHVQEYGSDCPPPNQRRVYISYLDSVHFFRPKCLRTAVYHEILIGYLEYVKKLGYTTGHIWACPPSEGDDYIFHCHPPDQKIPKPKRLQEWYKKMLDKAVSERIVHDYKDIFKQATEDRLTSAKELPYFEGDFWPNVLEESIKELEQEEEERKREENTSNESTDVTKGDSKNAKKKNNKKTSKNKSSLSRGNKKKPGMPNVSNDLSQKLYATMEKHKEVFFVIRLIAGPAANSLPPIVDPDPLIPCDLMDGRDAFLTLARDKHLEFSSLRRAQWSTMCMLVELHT
Protocol: (A) Structures of compound 1a (spermidine CoA), and the acetylated side chain of a lysine residue of a polypeptide chain. (B) Inhibition of p300 acetylating activity as a function of 1a concentration. The catalytic domain of recombinant p300 (1284-1660) was assayed under steady state conditions using an N-terminal acetylated histone H4 peptide substrate, Ac-H4(1-19)-NH2. Closed circles represent experimental data points; plain line represents theoretical profile based on data reduction software (Prism) using a one site inhibition model. (C) In vitro assay of p300 activity using a 96-well assay kit (ActivMotif) and an H3 peptide substrate (5-23), according to manufacturer's instructions. Bars represent average of duplicates. BK=background (no enzyme); C=control (no inhibitor); [1a]=50 μM.
Assays were performed using the fluorescent HAT assay kit (Active Motif, Carlsbad, Calif.), an H3 peptide as substrate (residues 5-23), the p300 catalytic domain as enzyme, and 50 μM inhibitor in duplicate, according to the manufacturer's instructions. […] The reaction product, CoASH, was detected spectrophotometrically by reaction with 5,5′-dithiobis-2-nitrobenzoic acid (DTNB). Assays were carried out at 30° C. for 30 minutes, conditions which had previously been determined in kinetic assays to sufficient to achieve steady state. […]

H358 cells = test: trypan blue exclusion viability assay; format: cell-based; conditions: human
Protocol: Cells were either labeled immediately before treatment (starting DNA synthesis rate), or subjected to the indicated treatments and then pulsed on successive days until day 4. DNA synthesis is represented as the percent of starting DNA synthesis rate. Viability was determined for each treatment condition 24 hours post-start of treatment by the trypan blue exclusion assay, with percentages of viable cells indicated to the right of the graph. […]
Cell viability, measured 18 hours after the start of each treatment by the trypan blue exclusion assay, a measure of cellular membrane integrity, confirmed that single agent treatment with either 1a or camptothecin had essentially no effect on cell viability (≧96% viability for untreated cells or single agent-treated cells).
The present inventors used 96-well viability assays as described in Saadatmandi et al (Cancer Gene Therapy (2002) 9:930-9) to examine the effect of 1a on DNA synthesis in H358 cells, as well as the combined effects of 1a and chemotherapeutic agents. […] Following the 6-hour labeling, cells were harvested and incorporation of [^3H]-thymidine was determined by scintillation counting. […] We measured cell viability 24 hours after the start of each treatment by the trypan blue exclusions assay, a measure of cellular membrane breakdown.

SMILES: CC(C)(COP(=O)(O)OP(=O)(O)OC[C@H]1O[C@@H](n2cnc3c(N)ncnc32)[C@H](O)[C@@H]1OP(=O)(O)O)[C@@H](O)C(=O)NCCC(=O)NCCSCC(=O)NCCCNCCCCN [1a, spermidine[N1]-CoA]
- Ki ([1]; from IC50=Ki(1+Km/S)≅Ki under substrate excess, read-out: estimated Ki for p300 fragment): 50 to 100 µM
- IC50 ([1]; histone H4 N-terminal peptide substrate, inferred from inhibitory plot, one site model, read-out: IC50, p300HAT catalytic subunit activity): 50 to 100 µM
- cell viability, trypan blue exclusion (H358 cells; 18 h): ≥ 96%
- cell viability, trypan blue exclusion (H358 cells; 24 h): ≥ 96%
